Patent US4395405A, “Alkyl-ketohexopyranoside derivatives and method of use” (Hisamitsu Pharmaceutical Co., Inc., priority 1979, dated 1983)

Experiments:
[1] = Acute poisoning test on mice; details: mouse, in vivo, male, three weeks
Procedure: (§1) Each of the test compounds was suspended in a physiological solution of sodium chloride containing 0.5% of tragacanth gum to obtain a test suspension. The test suspensions so obtained were administered to rats and mice in various ways. LD50 was calculated from test animals which died in three weeks after the start of the test.

IgE antibodies [2] = assay: Formation of homocytotropic antibodies in mice, PCA reaction; assay type: in vivo, mice (BALB/c strain), female; details: 100 mg/Kg/day for 5 days
Procedure: (§2) The collected serum was diluted in various concentrations and intradermally injected to other rats. Forty-eight (48) hours after the injection, 2 mg of DNP-As as protein and 0.5 ml of a 1% Evans Blue were intravenously injected into these rats to determine the dilution of the serum which induced the minimum extravasted dye. It should be noted that the symbols "*" and "**" in the following Tables indicate significant differences at risks of 5% and 1%, respectively.
(§3) Effects on the formation of homocytotropic antibodies in mice
(§4) Groups each consisting of 5 female mice (BALB/c strain) were used in this experiment. The mice were sensitized with 10 μg of DNP-As as protein and 3 mg of Al(OH)3, after which the test compound was administered to the sensitized mice for 5 days (at a dose of 100 mg/Kg/day). After the sensitization, a sample of serum was collected from the mice and treated in the same manner as in Experiment 1 to determine the amount of antibodies formed. […]

[3] = Acute poisoning test on rats; details: rat, in vivo, male, three weeks
Procedure: as §1

IgE antibodies [4] = assay: Formation of homocytotropic antibodies in rats, PCA (passive cutaneous anaphylaxis) reaction; assay type: in vivo, rats of wistar strain; details: Table 3 left half, hypodermic administration; serum 8 days after sensitization; control 144.5 (117.5-177.8)
Procedure: (§5) Effects on the formation of homocytotropic antibodies in rats
(§6) An experiment was carried out in accordance with the Tada and Okumura's method (J. Immunol., Vol. 106, p 1002, 1971).
(§7) Groups each consisting of 8-9 rats of wistar strain were used in this experiment.
(§8) As shown in Tables 2-5, to the four legs of the rats were injected 1 mg of dinitrophenylated extract of ascaris suum (DNP-As) as protein and 10^10 cells of vaccinum pertussis (B. Pertussis) for sensitization, after which the compounds of this invention were administered to the injected rats for 5 days. Eight to nine days after the sensitization, bloodletting was effected on these rats to collect their serum for estimating the amount of antibodies formed using passive cutaneous anaphylaxis (PCA) reactions and phytohemaglutinin (PHA) reactions.
(1) Estimation of the amount of antibodies by PCA reaction:
as §2, with “respectively. […]” for “respectively.”

IgG and IgM [5] = assay: Amount of antibodies formed in mice, PHA reaction; assay type: in vivo, mice (BALB/c strain), female; details: Table 11, hypodermic, 100 mg/Kg/day for 5 days
Procedure: The collected serum was diluted in various concentrations and incubated with sheep red blood cells coupled with DNP-As using bis-diazoated benzydine to determine the dilution of the serum which induced the minimum hemaglutination.
as §3, §4

IgG and IgM [6] = assay: Amount of antibodies formed in rats, PHA (phytohemaglutinin) reaction; assay type: in vivo, rats of wistar strain; details: Table 5 left half, hypodermic administration; serum 8 days after sensitization; control 1318.3 (933.3-1862.1)
Procedure: as §5, §6, §7, §8
(2) Estimation of the amount of antibodies by PHA reaction:
The collected serum was diluted in various concentrations and incubated with sheep red blood cells coupled with DNP-As using bis-diazoated benzydine to determine the dilution of the serum which induced the minimum hemaglutination. […]

Compound: CCCOC1(CO)OCC(O)C(O)C1O [Compound No. 7, n-propyl-α-L-sorbopyranoside]
- LD50 at 504 h ([1]; ip, abdominally): > 1000 mg/kg
- LD50 at 504 h ([1]; iv, intravenously): > 2000 mg/kg
- LD50 at 504 h ([1]; po, orally): > 5000 mg/kg
- LD50 at 504 h ([1]; sc, hypodermically): > 5000 mg/kg
- PCA of mice (serum dilution) (IgE antibodies [2]; Table 7, oral, serum 10 days after sensitization, control 537.0 (436.5-660.7)): 218.8
- PCA of mice (serum dilution) (IgE antibodies [2]; Table 8, hypodermic, serum 9 days after, control 708.0 (575.4-871.0)): 660.7
- PCA of mice (serum dilution) (IgE antibodies [2]; Table 8, hypodermic, serum 10 days after, control 537.0 (380.2-758.6)): 407.4
- PCA of mice (serum dilution) (IgE antibodies [2]; Table 8, hypodermic, serum 37 days after, control 2818.4 (1862.1-4265.8)): 1995.3
- LD50 at 504 h ([3]; ip, abdominally): > 5000 mg/kg
- LD50 at 504 h ([3]; iv, intravenously): > 2000 mg/kg
- LD50 at 504 h ([3]; po, orally): > 5000 mg/kg
- LD50 at 504 h ([3]; sc, hypodermically): > 5000 mg/kg
- PCA of rat: dilution of the serum which induced the minimum extravasted dye (IgE antibodies [4]): 67.6
- PHA of mice (serum dilution) (IgG and IgM [5]; serum 9 days after, control 380.2 (269.2-537.0)): 309.0 (251.2-380.2)
- PHA of mice (serum dilution) (IgG and IgM [5]; serum 10 days after, control 109.7 (95.5-125.9)): 166.0 (134.9-204.2)
- PHA of mice (serum dilution) (IgG and IgM [5]; serum 37 days after, control 1071.5 (871.0-1318.3)): 1000 (758.6-1318.3)
- PHA of rat: dilution of the serum which induced the minimum hemaglutination (IgG and IgM [6]): 5248.1
